Reference: patent US6488953B2, “Oral transmucosal delivery” (Controlled Therapeutics (Scotland) Ltd., priority 1998, dated 2002)
“And” between values parts separate entries of the source, which are not always exact repeats. Equal values may be shown once.

How the values were obtained:
[1] = Lysozyme in-vitro release from dried slices (BCA assay); assay type: physicochemical; settings: five dried slices in 30 ml demineralised water, after 24 hours
Protocol: To determine the release profile of lysozyme from dried slices, five slices (0.86 g) were placed in a bottle and 30 ml of demineralised water added. Samples were taken regularly and analysed for protein using the BCA assay. A total of 22.9 mg (88.4%) was released after 24 hours.

[2] = Microbiological testing in-vitro, each drug alone; assay type: cell-based; settings: examined alone
Source text: (§1) A microbiological assay was developed to examine the efficacy of the colistin sulphate and tobramycin when loaded and released from the polymer at the same time. organisms were selected which were sensitive to only one of the antibiotics.

[3] = In-vivo release of colistin sulphate and tobramycin from buccal inserts; settings: four subjects
Source text: The release of the two drugs was examined in four healthy subjects. The insert was placed against the buccal mucosa in the upper gingival tissue. Eating and smoking was not permitted during the study, drinking of tea, coffee or soft drinks was allowed.

S.Aureus = test: MIC microbiological assay; assay type: cell-based; settings: single drug
Source text: as §1

A.Xylosoxidans = test: MIC microbiological assay; assay type: cell-based; settings: single drug
Source text: as §1

[4] = Oral dissolution model, chemical (HPLC) assay of tobramycin; assay type: physicochemical; settings: for Chemical Dissolution (concentration in eluate): cells 1-3
Protocol: (§2) Six cells were sterilised by autoclaving and then connected to a Duran bottle of sterile water. The flow of water into the cell was controlled by a peristaltic pump (Watson Marlow, Falmouth, UK) to a rate of 0.5 ml/minute. Two different dosage forms (5.8 and 10.5 mg tobramycin) as 9.2 mm discs of thickness 1.7 mm and 130 mg weight were tested by placing directly under the inflow tube and media allowed to flow slowly across them. The dissolution cells were kept at an angle of about 10 degrees to the horizontal to allow flow away from the test units and towards the outflow tube where it was either run to waste or sampled for test. Samples of 2 ml were collected at various timepoints up to 3 hours and divided for chemical (HPLC) and microbiological assay. Tobramycin chemical analysis was carried out using a Dionex HPLC method. The microbiological assay was carried out by double diluting the eluted fractions with broth. These were then spiked with a known number of micro-organisms and incubated. The last tube without growth was then noted. By carrying this out in parallel against a series of prepared standards the inhibitory concentration could be derived.

micro-organisms = test: Oral dissolution model, microbiological assay of eluted fractions; assay type: cell-based; settings: cells 1-3
Protocol: as §2

[5] = Apomorphine plasma levels after buccal inserts; assay type: in vivo, human; settings: one subject, insert containing 20 mg
Protocol: 1.1 mm thick inserts containing 5, 10 and 20 mg of apomorphine were tested for drug release in six subjects. The levels of drug observed in plasma was 0.2 to 0.8 ng/ml for five of the subjects and reached 5 ng/ml for one subject after administering an insert containing 20 mg of apomorphine.

[6] = Apomorphine in-vivo release, 0.6 mm inserts; design: species or system human; settings: individual subjects 1-8
Protocol: Inserts were prepared of thickness 0.6 mm and the release profile in-vitro compared with those of the 1.1 mm thick inserts.
A study was carried out in eight subjects. These included two subjects from the previous study and six new subjects.

## Lysozyme
[1]
  total released: 22.9 mg
  total released (%): 88.4%

## Colistin Sulphate
[2]
  microbiological activity: microbiologically active
[3]; insert thickness 0.4 mm, 1 Hour
  Mean Amount of Drug Released (%): 48.8%
[3]; insert thickness 0.4 mm, 3 Hours
  Mean Amount of Drug Released (%): 98.6%
[3]; insert thickness 0.6 mm, 1 Hour
  Mean Amount of Drug Released (%): 32.4%
[3]; insert thickness 0.6 mm, 3 Hours
  Mean Amount of Drug Released (%): 92.8%
[3]; insert thickness 0.8 mm, 1 Hour
  Mean Amount of Drug Released (%): 26.7%
[3]; insert thickness 0.8 mm, 3 Hours
  Mean Amount of Drug Released (%): 83.4%
[3]; insert thickness 1.1 mm, 3 Hours
  Mean Amount of Drug Released (%): 57.9%
S.Aureus
  MIC: >32 μ μgml^−1
A.Xylosoxidans
  MIC: 8 μ μgml^−1

## NC[C@H]1O[C@H](O[C@H]2[C@H](O)[C@@H](O[C@H]3O[C@H](CO)[C@@H](O)[C@H](N)[C@H]3O)[C@H](N)C[C@@H]2N)[C@H](N)C[C@@H]1O [Tobramycin]
[2]
  microbiological activity: microbiologically active
[4]; 5 mg Dose, 0.25 hrs
  Chemical Dissolution (concentration in eluate): 35.5 µg/mL and 26.7 µg/mL and 33.4 µg/mL
[4]; 5 mg Dose, 1 hrs
  Chemical Dissolution (concentration in eluate): 23.7 µg/mL and 17.7 µg/mL and 24.0 µg/mL
[4]; 5 mg Dose, 2 hrs
  Chemical Dissolution (concentration in eluate): 14.0 µg/mL and 15.8 µg/mL and 18.6 µg/mL
[4]; 5 mg Dose, 3 hrs
  Chemical Dissolution (concentration in eluate): 14.0 µg/mL and 12.0 µg/mL and 15.4 µg/mL
[4]; 10 mg Dose, 0.25 hrs
  Chemical Dissolution (concentration in eluate): 105.6 µg/mL and 85.3 µg/mL and 64.4 µg/mL
[4]; 10 mg Dose, 1 hrs
  Chemical Dissolution (concentration in eluate): 65.4 µg/mL and 44.6 µg/mL and 34.8 µg/mL
[4]; 10 mg Dose, 2 hrs
  Chemical Dissolution (concentration in eluate): 48.7 µg/mL and 36.9 µg/mL and 27.9 µg/mL
[4]; 10 mg Dose, 3 hrs
  Chemical Dissolution (concentration in eluate): 36.5 µg/mL and 32.0 µg/mL and 27.0 µg/mL
[4]; oral dissolution model, 0.5 ml/minute
  time for which controlled release is maintained: 3 h
micro-organisms; 5 mg Dose, 0.25 hrs
  Microbiological Measure of Activity (derived concentration): 32 mcg/ml and 36 mcg/ml
micro-organisms; 5 mg Dose, 2 hrs
  Microbiological Measure of Activity (derived concentration): 16 mcg/ml and 18 mcg/ml
micro-organisms; 5 mg Dose, 3 hrs
  Microbiological Measure of Activity (derived concentration): 16 mcg/ml and 18 mcg/ml
micro-organisms; 10 mg Dose, 0.25 hrs
  Microbiological Measure of Activity (derived concentration): 64 mcg/ml
micro-organisms; 10 mg Dose, 1 hrs
  Microbiological Measure of Activity (derived concentration): 64 mcg/ml and 32 mcg/ml
micro-organisms; 10 mg Dose, 2 hrs
  Microbiological Measure of Activity (derived concentration): 32 mcg/ml and 16 mcg/ml
micro-organisms; 10 mg Dose, 3 hrs
  Microbiological Measure of Activity (derived concentration): 32 mcg/ml and 16 mcg/ml
S.Aureus
  MIC: 4 μ μgml^−1
A.Xylosoxidans
  MIC: >256 μ μgml^−1

## CN1CCc2cccc3c2[C@H]1Cc1ccc(O)c(O)c1-3 [Apomorphine]
[5]
  levels of drug observed in plasma: 5 ng/mL
[6]; 10 mg
  % RELEASE: 6.4% and 42.8% and 30.4% and 10.9% and 0.48% and 25.1% and 26.0% and 3.4%
[6]; 18 mg
  % RELEASE: 2.64% and 15.2% and 26.3% and 21.5% and 4.1% and 7.5% and 49.2% and 19.4%
[6]; 27 mg (am.)
  % RELEASE: 0.0% and 1.1% and 24.8% and 9.9% and 2.7% and 6.2% and 17.7% and 1.3%
[6]; 27 mg (pm.)
  % RELEASE: 0.0% and 6.2% and 32.6% and 23.6% and 4.4% and 1.3% and 29.6% and 3.0%
